Measured values from US11793881B2, “Polyethylene glycol conjugate medicament, preparation method therefor and use thereof” (CHONGQING UPGRA BIOTECHNOLOGY CO., LTD., priority 2019, dated 2023).

Test system: human breast cancer BT474 cells
Procedure: Test sample diluent: a proper amount of PEG300 and absolute alcohol was taken, and sodium chloride injection was added to make that the content of PEG300 and absolute alcohol was 20% (v/v).
Test samples: 41-32, 41-40 and 39-55 were respectively taken in a proper volume, and a proper amount of each of the test sample diluent was added, to respectively prepare solutions with the concentrations of 8.3 mg/mL, 4.6 mg/mL and 5.5 mg/mL.
An estrogen sustained-release tablet (17 beta-ESTRADIOL, product No.: SE-121, Innovative Research of America) was embedded under the skin at the neck back of NPG mice before cell inoculation. A BT474 cell suspension with the concentration of 7.5×10^7/mL and a Matrigel Basement membrane Matrix (BD Co.) were mixed according to the volume ratio of 1:1 to obtain a cell suspension with the concentration of 3.75×10^7/mL. 0.2 mL of the cell suspension was inoculated into the right mammary fat pad of the mice. The tumor growth was observed after inoculation, and 36 tumorigenic animals with the tumor volume of 66.83-324.35 mm^3 were finally screened and used for the test.
The negative control, SB7, 41-32, 41-40 and 39-55 were intravenously injected; LPT was intragastrically administered.

[1] = end of experiment (D29), doses as in E38

SMILES: CS(=O)(=O)CCNCc1ccc(-c2ccc3ncnc(Nc4ccc(OCc5cccc(F)c5)c(Cl)c4)c3c2)o1 [LPT, Lapatinib]
- animals died during the experiment (6 animals per group, LPT 20 mg/kg i.g. (D19), SB7+LPT 5+5.6 mg/kg (D15, D25)): 1
- average tumor weight (after euthanasia (D29), doses as in E38): 1.226 ± 0.370 g
- inhibition effect on tumor growth (conclusion) (doses as in E38): certain inhibition effects
- average tumor volume (end of experiment (D29), LPT 20 mg/kg i.g. and 41-32 83 mg/kg i.v. every 3 days, SB7+LPT 5+5.6 mg/kg, 41-40 46 mg/kg i.v., 39-55 55 mg/kg i.v. one time/week, 4 weeks): 1313.80±241.46 mm^3
- average RTV (relative tumor volume) [1]: 8.13±2.92
- relative tumor proliferation rate T/C % [1]: 54.27%
- tumor weight inhibition rate IRTW % (from tumor weights after euthanasia (D29), b1725, doses as in E38): 32.15%
